Experimental data published in the NIST ThermoML archive (doi:10.1016/j.jct.2009.11.004).

Experiments:
[1] = refractive index (Na D-line) (dimensionless); conditions: 101.33 kPa, Liquid, Standard Abbe refractometry
[2] = 101.33 kPa, Liquid; for viscosity: Concentric cylinders viscometry; for mass density: Vibrating tube method

CCCCCC[n+]1ccn(C)c1.O=S(=O)([N-]S(=O)(=O)C(F)(F)F)C(F)(F)F
298.15 K
Conditions | mass density [kg/m3] | refractive index | viscosity [mPa·s]
[1] | – | 1.4318 | –
[2] | 1370.8 | – | 68.54

CCCCCCCCCC[n+]1ccccc1.O=S(=O)([N-]S(=O)(=O)C(F)(F)F)C(F)(F)F [1-decylpyridinium bis(trifluoromethylsulfonyl)imide]
Conditions | mass density, [2] [kg/m3] | refractive index, [1] | viscosity, [2] [mPa·s]
293.15 K | 1287.8 | 1.45007 | 201.44
298.15 K | 1283.5 | 1.44859 | 151.93
303.15 K | 1279.2 | 1.44703 | 116.39
308.15 K | 1275.1 | 1.44546 | 90.82
313.15 K | 1270.9 | 1.44391 | 72.07
318.15 K | 1266.8 | 1.44239 | 58.06
323.15 K | 1262.6 | 1.44091 | 47.46
328.15 K | 1258.5 | 1.43943 | 39.29
333.15 K | 1254.3 | 1.43796 | 32.91
338.15 K | 1250.2 | – | 27.86
343.15 K | 1246.1 | – | 23.81
348.15 K | 1242 | – | 20.54
353.15 K | 1237.9 | – | 17.85

CCCC[n+]1ccccc1.O=S(=O)([N-]S(=O)(=O)C(F)(F)F)C(F)(F)F [1-butylpyridinium bis[(trifluoromethyl)sulfonyl]imide]
Conditions | mass density, [2] [kg/m3] | refractive index, [1] | viscosity, [2] [mPa·s]
293.15 K | 1452.5 | 1.44537 | 76.16
298.15 K | 1447.6 | 1.44379 | 60.41
303.15 K | 1442.9 | 1.44211 | 48.55
308.15 K | 1438.3 | 1.44057 | 39.65
313.15 K | 1433.6 | 1.43911 | 32.83
318.15 K | 1429 | 1.43769 | 27.56
323.15 K | 1424.3 | 1.43631 | 23.4
328.15 K | 1419.7 | 1.43496 | 20.08
333.15 K | 1415.1 | 1.43359 | 17.4
338.15 K | 1410.5 | – | 15.2
343.15 K | 1406 | – | 13.39
348.15 K | 1401.5 | – | 11.87
353.15 K | 1397 | – | 10.59

CCCCCCCC[n+]1ccccc1.O=S(=O)([N-]S(=O)(=O)C(F)(F)F)C(F)(F)F [1-octylpyridinium bis((trifluoromethyl)sulfonyl)amide]
Conditions | mass density, [2] [kg/m3] | refractive index, [1] | viscosity, [2] [mPa·s]
293.15 K | 1331.3 | 1.4487 | 149.53
298.15 K | 1326.8 | 1.44723 | 114.34
303.15 K | 1322.5 | 1.44568 | 88.74
308.15 K | 1318.2 | 1.44413 | 70.13
313.15 K | 1313.9 | 1.44262 | 56.33
318.15 K | 1309.6 | 1.44115 | 45.9
323.15 K | 1305.3 | 1.43972 | 37.91
328.15 K | 1301.1 | 1.43827 | 31.7
333.15 K | 1296.8 | 1.43681 | 26.8
338.15 K | 1292.6 | – | 22.89
343.15 K | 1288.3 | – | 19.73
348.15 K | 1284.1 | – | 17.15
353.15 K | 1279.9 | – | 15.02

CCCCCCCCCCCC[n+]1ccccc1.O=S(=O)([N-]S(=O)(=O)C(F)(F)F)C(F)(F)F [1-dodecylpyridinium bis(trifluoromethylsulfonyl)imide]
Conditions | mass density, [2] [kg/m3] | refractive index, [1] | viscosity, [2] [mPa·s]
293.15 K | 1253.1 | 1.45131 | 269.72
298.15 K | 1248.8 | 1.44969 | 200.45
303.15 K | 1244.6 | 1.44818 | 151.42
308.15 K | 1240.5 | 1.44668 | 116.63
313.15 K | 1236.4 | 1.44524 | 91.45
318.15 K | 1232.3 | 1.44379 | 72.83
323.15 K | 1228.2 | 1.44235 | 58.88
328.15 K | 1224.1 | 1.4409 | 48.25
333.15 K | 1220.1 | 1.43946 | 40.02
338.15 K | 1216 | – | 33.59
343.15 K | 1212 | – | 28.47
348.15 K | 1208 | – | 24.36
353.15 K | 1204 | – | 21.03
